Values of other authors as cited in patent US20250049835A1, “COMPOSITIONS FOR ALTERING CYCLIC ADP-RIBOSE SECONDARY MESSENGER SIGNALLING” (Yeda Research and Development Co. Ltd., priority 2022, published 2025).

Target: T1, Bacillus cereus MSX-D12 ThsA enzyme (Bacillus cereus, UniProt J8G6Z1)
T1 construct: The reporter enzyme ThsA was expressed and purified as described previously; made in house
T1 sequence (J8G6Z1 1-476): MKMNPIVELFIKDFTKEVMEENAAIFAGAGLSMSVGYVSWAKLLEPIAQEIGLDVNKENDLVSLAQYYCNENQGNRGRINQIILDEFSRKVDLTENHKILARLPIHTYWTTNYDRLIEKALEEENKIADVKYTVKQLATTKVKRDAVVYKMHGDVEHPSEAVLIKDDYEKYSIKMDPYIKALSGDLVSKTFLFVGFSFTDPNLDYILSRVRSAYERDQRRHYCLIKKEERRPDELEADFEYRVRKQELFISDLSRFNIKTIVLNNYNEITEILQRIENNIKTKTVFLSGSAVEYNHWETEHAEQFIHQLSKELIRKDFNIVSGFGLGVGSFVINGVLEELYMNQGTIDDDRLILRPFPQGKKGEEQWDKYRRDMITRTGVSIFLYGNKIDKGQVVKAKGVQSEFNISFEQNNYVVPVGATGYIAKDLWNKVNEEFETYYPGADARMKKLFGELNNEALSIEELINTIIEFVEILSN
Conditions: previously shown

SMILES: Nc1ncnc2c1ncn2[C@@H]1O[C@@H]2COP(=O)(O)OP(=O)(O)OC[C@H]3O[C@@H](OC1C2O)C(O)C3O (stereo partly shown) [1′-2′ gcADPR]
- Activation of ThsA by cADPR isomer produced by plant TIR proteins: can activate the Theoris effector ThsA
